Results taken from PubChem BioAssay AID624395 (The Scripps Research Institute Molecular Screening Center, 2012).
Active and inactive are the calls of the source. The rule behind the calls is not given here.

System: cell-based VP16 transactivation luciferase luminescence
Assay: VP16 transactivation luciferase reporter inhibitors, dose response, counter-screen for NR2E3 agonist project, cell-based, luminescence (AID 624395)

## Cc1ccc(Cc2cnc(N3C(=N)SC(C)C3=O)s2)cc1 (stereo not given)
  IC50: 4.37 µM

## C=C1C(=O)OC2CC(C)C3C=CC(=O)C3(C)C(O)C12 (stereo not given)
  IC50: 10.5 µM (inactive)

## CC(=O)c1c(C)[nH]c(C(=O)OCC(=O)c2ccc(Br)cc2)c1C
  IC50: 3.45 µM

## CC(=O)N1c2ccc(S(=O)(=O)N3CCC(C(=O)Nc4cccc(Cl)c4)CC3)cc2CC1C (stereo not given)
  IC50: 6.45 µM

## O=C1/C(=C\c2ccc([N+](=O)[O-])cc2)CS(=O)(=O)C/C1=C/c1ccc([N+](=O)[O-])cc1
  IC50: 4.12 µM

## COc1ccc(NC2c3ccccc3C(=O)N2Cc2ccccc2Cl)cc1OC (stereo not given)
  IC50: > 39.8 µM (inactive)

## COc1cc2c(OC(C)=O)c3c(c(-c4ccc5c(c4)OCO5)c2cc1OC)C(=O)OC3
  IC50: 3.48 µM

## O=C(COc1cccc2ccccc12)Nc1ccc(Cl)cc1C(=O)O
  IC50: 4.04 µM

## O=C1C(=O)c2cccnc2-c2ncccc21
  IC50: 13.1 µM (inactive)

## COc1cnc(-c2ccccn2)nc1N(C)c1ccccc1
  IC50: 5.76 µM

## COc1ccc(NC(=O)/C(Cl)=C(/Cl)S(=O)(=O)Cc2ccccc2)cn1
  IC50: 5.13 µM

## COc1ccc(-n2c(C)cc(C(=O)COC(=O)c3ccc(O)cc3O)c2C)cc1
  IC50: 4.48 µM

## CC(=O)Nc1ccc(Sc2ccc([N+](=O)[O-])o2)cc1
  IC50: 18.3 µM (inactive)

## CN(C)c1ncnc2c1ccn2C1OC(CO)C(O)C1O (stereo not given)
  IC50: 0.53 µM

## COc1ccc(S(=O)(=O)N2CCCCC2)cc1NC(=S)Nc1cccc(Cl)c1C
  IC50: > 39.8 µM (inactive)

## COc1cnc(-c2ccccn2)nc1Sc1ccccc1Cl
  IC50: 4.92 µM

## CNC(=S)/N=C/NOCc1ccc(Cl)cc1Cl
  IC50: 5.03 µM

## Cc1ccc(S(=O)(=O)N2[C@@H](c3ccc(Cl)cc3)C(C(=O)O)=CC[C@H]2c2ccc(C(C)C)cc2)cc1
  IC50: 7.56 µM

## CC(C)c1cc2c(c(O)c1O)[C@@]13CCCC(C)(C)C1CC2OC3=O (stereo not given in full)
  IC50: > 39.9 µM (inactive)

## CCCCCCCCCCCCN1[C@@H](CC(=O)O)c2cc(F)ccc2S1(=O)=O
  IC50: 8.51 µM

## NS(=O)(=O)c1ccc(CCNc2nn3c(-c4cccc(OC(F)(F)F)c4)cnc3s2)cc1
  IC50: 4.66 µM

## CCn1c(=O)cc(SCC(=O)Nc2ccc(C)cn2)c2ccccc21
  IC50: 4.63 µM

## Cc1cccc(C)c1OCc1cc(C(=O)N2CCC(c3ccncc3)CC2)no1
  IC50: 2.08 µM

## Cc1cccc(C(=O)N[C@H](C(=O)Nc2ncc(C)s2)C(C)C)c1
  IC50: 12.1 µM (inactive)

## O=C1N/C(=C\c2ccc(O)cc2)C(O)=C1C=NCc1ccccc1
  IC50: > 39.8 µM (inactive)

## Cc1cc(C(=O)Nc2ccc(Cl)cc2)c(C)n1-c1ccccc1
  IC50: 0.00684 µM

## O=C(Nc1cccc(NC(=O)c2c(F)cccc2F)n1)c1c(F)cccc1F
  IC50: > 39.8 µM (inactive)

## CCc1nnc(NC(=O)c2ccc(S(=O)(=O)N3CCCc4ccccc43)cc2)o1
  IC50: 6.8 µM

## Cc1ccnc(NC(=O)CSc2cc(=O)n(C)c3ccccc23)c1
  IC50: 11 µM (inactive)

## CC(C(=O)N1CCN(c2ccc(Cl)cc2)CC1)c1ncc(C(F)(F)F)cc1Cl (stereo not given)
  IC50: 7.28 µM

## Cc1ccnc(NC(=S)N2CCN(c3cccc(C(F)(F)F)c3)CC2)c1
  IC50: 12.3 µM (inactive)

## CCOC(=O)Cc1nnc2c(Nc3ccccc3F)nc3nonc3n12
  IC50: 4.03 µM

## CC1CC(C)C(=NNC(N)=O)C(C(O)CC2CCC(=O)NC2=O)C1 (stereo not given)
  IC50: 4.07 µM

## O=S(=O)(NC1CCCC1)c1ccc(S(=O)(=O)N2CCc3ccccc32)cc1
  IC50: 4.59 µM

## O=C(OC(c1ccccc1)c1nccc2ccccc12)c1ccccc1 (stereo not given)
  IC50: 0.242 µM

## NC1=C(Br)C(=O)c2ncccc2C1=O
  IC50: 2.51 µM

## N#C/C(=C\c1ccc(Sc2nc3ccccc3[nH]2)o1)c1ccccc1
  IC50: 4.65 µM

## Cc1ccnc(NC(=O)CCCOc2cc(=O)n(C)c3ccccc23)c1
  IC50: 8.23 µM

## O=C(C1CCC(CNS(=O)(=O)c2cccc3nsnc23)CC1)N1CC=C(c2ccccc2)CC1 (stereo not given)
  IC50: 6.86 µM

## Clc1cc2cccnc2c2ncccc12
  IC50: 12.1 µM (inactive)

## C=CCn1c(C)cc(C(=O)COc2ccc(C)nc2[N+](=O)[O-])c1C
  IC50: 0.946 µM

## CCOP(=O)(CCP(=O)(OCC)OCC)OCC.C[CH2][Sn]([Cl])([Cl])[CH2]C
  IC50: 10.9 µM (inactive)

## Cc1ccc(-c2nc(NC(=O)CSc3nnnn3-c3ccccc3)ns2)cc1
  IC50: 12.1 µM (inactive)

## C=CC[n+]1c(-c2ccc(Cl)cc2Cl)csc1Nc1ccc(NC(C)=O)cc1
  IC50: 2.75 µM

## FC(F)Sc1ccc(NC(=S)N2CCN(c3ccccn3)CC2)cc1
  IC50: 4.15 µM

## CCc1cccc2sc(N3CCN(C(=O)c4ccc([N+](=O)[O-])o4)CC3)nc12
  IC50: > 13.3 µM (inactive)

## Cc1nc(NC(=O)c2c(-c3ccccc3Cl)noc2C)sc1C
  IC50: > 39.8 µM (inactive)

## Cc1c(Cl)ccc2sc(N3CCN(C(=O)C4=COCCO4)CC3)nc12
  IC50: 7 µM

## Cc1cc(C(=O)COc2cccnc2[N+](=O)[O-])c(C)n1-c1ccccc1
  IC50: 0.3 µM

## O=C(/C=C/c1ccc([N+](=O)[O-])o1)NNC(=O)c1ccc(F)cc1
  IC50: 24.2 µM (inactive)

## Cc1cc(NC(=O)CSc2nc3c(sc4ccccc43)c(=O)n2CCCN2CCOCC2)n[nH]1
  IC50: > 39.8 µM (inactive)

## Cc1cnc(NC(=O)CCCc2nc3ccccc3s2)s1
  IC50: 5.07 µM

## CC(C)(C)NCC(=Cc1ccccc1)C(=O)c1ccccc1
  IC50: 7.33 µM

## COc1ccccc1C(=O)Nc1nc2ccccc2[nH]1
  IC50: 5.03 µM

## Cc1c(C(=O)Nc2ccc(Oc3ccccc3)cc2)sc2nc3n(c(=O)c12)CCC3
  IC50: 5.11 µM

## Cc1nc2ccc(S(=O)(=O)Nc3cccc(-c4nc5cccnc5s4)c3)cc2s1
  IC50: 7.12 µM

## COc1cccc(C(=O)c2sc(NC(C)C)nc2N)c1
  IC50: 5.16 µM

## CSC(=Nc1ccccc1)N=C(SCc1ccccc1)N(C)C
  IC50: 4.06 µM

## CC(C)(C)C(=O)Nc1ccc(Sc2ccc([N+](=O)[O-])cc2)cc1
  IC50: 4.6 µM

## C=CCn1c(C)cc(C(=O)CN2C(=O)c3ccccc3S2(=O)=O)c1C
  IC50: 2.31 µM

## COc1ccc(CNC(=O)c2cccc3c(-c4ccc(F)c(F)c4)coc23)cc1OC
  IC50: 4.54 µM

## Cc1ccc(NC(=S)/C(C#N)=C2/Nc3ccccc3S2)cc1
  IC50: 2.76 µM

## COc1ccc(C[C@@H]2OC3(C=CC(=O)C=C3)O[C@H]2Cc2ccc(OC)cc2)cc1
  IC50: 0.845 µM

## Cc1ccc(CN2CC(C(=O)Nc3ncc(C)s3)CC2=O)cc1 (stereo not given)
  IC50: > 39.8 µM (inactive)

## COCCn1c(C)cc(C(=O)COc2ccc(C)nc2[N+](=O)[O-])c1C
  IC50: 1.46 µM

## O=C(CSc1nnnn1-c1ccccc1)Nc1nsc(-c2ccc(Cl)cc2)n1
  IC50: 0.833 µM

## Cc1nn(Cc2cccc(F)c2)c(C)c1NC(=O)c1ccc(COc2ccccc2Cl)cc1
  IC50: 11.7 µM (inactive)

## COc1ccc(NC(=O)/C(Cl)=C(/Cl)S(=O)Cc2ccccc2)cn1 (stereo not given)
  IC50: 2.1 µM

## COc1cccc(NC(=O)CSc2nc3ncc(Br)cc3[nH]2)c1
  IC50: > 39.8 µM (inactive)

## Cc1cccc(/C=N/Nc2cc(N3CCOCC3)nc(N3CCOCC3)n2)c1
  IC50: 5.91 µM

## Cc1sc(NC(=O)/C=C/c2ccc3c(c2)OCO3)nc1-c1ccccc1
  IC50: 7.11 µM

## Cc1cccc(Cc2cnc(N3C(=N)SC(C)C3=O)s2)c1 (stereo not given)
  IC50: 4.96 µM

## O=C(NCc1cccnc1)/C(=C\c1ccc(-c2ccc(Cl)c(Cl)c2)o1)S(=O)(=O)c1ccccc1
  IC50: 7.96 µM

## Cc1ccc(OCCOC(=O)c2cc(S(=O)(=O)N3CCCCC3)ccc2N2CCOCC2)cc1
  IC50: 8.95 µM

## CCC1(O)C(=O)OCc2c1cc1n(c2=O)Cc2cc3cc(O)ccc3nc2-1 (stereo not given)
  IC50: 3.4 µM

## CC(C)(C)Nc1nc(-c2ccccn2)nc2ccccc12
  IC50: 4.08 µM

## N#C/C(=N\Nc1ccc(Cl)c(Cl)c1)C(=O)C1CC1
  IC50: 1.04 µM

## CCCOc1ccc(CSc2nc3ccccc3[nH]2)cc1
  IC50: 13.3 µM (inactive)

## c1ccc(-c2cc(CSc3nc4ccccc4[nH]3)on2)cc1
  IC50: 2.69 µM

## O=C(O)c1ccc(S(=O)(=O)/N=C2\C=C(Nc3ccccc3F)C(=O)c3ccccc32)cc1
  IC50: 4.45 µM

## CC(C)(C)C(=O)Nc1cc2nn(-c3ccccc3)nc2cc1Cl
  IC50: 0.00479 µM

## O=C(Nc1ccccc1Cl)/C(Cl)=C(\Cl)S(=O)c1ccccc1 (stereo not given)
  IC50: 4.1 µM

## O=C(c1cc(S(=O)(=O)N2CCN(c3ccccc3)CC2)ccc1Cl)N1CCCCCCC1
  IC50: 2.51 µM

## NC(=O)c1nn(-c2ccccc2)nc1NC(=O)CSc1nnnn1-c1ccc(Cl)cc1
  IC50: > 39.8 µM (inactive)

## O=C(O)CC1(CC(=O)Nc2cc(C(F)(F)F)cc(C(F)(F)F)c2)CCCCC1
  IC50: 14.1 µM (inactive)

## Cc1ccc(S(=O)(=O)N2[C@@H](c3ccc(Br)cc3)C(C(=O)O)=CC[C@H]2c2ccc(Cl)c(Cl)c2)cc1
  IC50: 7.28 µM

## COc1ccc2c(c1)/C(=C/c1cnc[nH]1)C(=O)N2
  IC50: 12.7 µM (inactive)

## Cc1cnc(NC(=O)CN2CCN(c3ccccn3)CC2)s1
  IC50: 9.56 µM

## O=[N+]([O-])c1cc(CN2CCN(c3ccccc3)CC2)c(O)c2ncccc12
  IC50: > 39.8 µM (inactive)

## Cc1nc2ncnn2c(N2CCN(c3cccc(C(F)(F)F)c3)CC2)c1C
  IC50: 6.46 µM

## O=C(OC12CC3CC(CC(C3)C1)C2)c1ccc(NCc2cc(O)ccc2O)cc1
  IC50: 11.6 µM (inactive)

## CCC1(OC(=O)CN(C)C)C(=O)OCc2c1cc1n(c2=O)Cc2cc3c(N)cccc3nc2-1 (stereo not given)
  IC50: 2.99 µM

## OC[C@@H]1CN(Cc2ccc(-c3ccccc3)cc2)C[C@H](n2cnc3c(Nc4ccccc4)ncnc32)O1
  IC50: 5 µM

## Cc1ccc([C@@H]2CC=C(C(=O)O)[C@H](c3ccc(C(C)(C)C)cc3)N2S(=O)(=O)c2ccc(C)cc2)cc1
  IC50: 7.47 µM

## O=c1c(Br)ccc(Br)cc1Br
  IC50: 4.8 µM

## O=C1C=CC2(O[C@H](c3ccccc3)[C@@H](c3ccccc3)O2)[C@H](Sc2ccccc2O)C1
  IC50: 4.89 µM

## c1ccc(C(Cc2nc(-c3ccncc3)no2)c2ccccc2)cc1
  IC50: 4.37 µM

## CCCCCCCCn1c(=O)c(C(=O)OC)c(N)c2ccccc21
  IC50: 3.64 µM

## Cc1ccc(NC(=O)CNC(=O)c2cccc(C)c2)nc1
  IC50: 26 µM (inactive)

## COc1ccc(OC)c(NC(=O)CSc2nnnn2-c2ccc3c(c2)OCO3)c1
  IC50: 3.36 µM

## O=C(OCCOc1ccc(Cl)cc1)c1cc(S(=O)(=O)N2CCCCC2)ccc1N1CCOCC1
  IC50: 8.66 µM

## Cc1cnc(NC(=O)C2CC(=O)N(c3cccc(Cl)c3)C2)s1 (stereo not given)
  IC50: 1.05 µM

## O=C(CSc1nnnn1-c1ccc(O)cc1)Nc1ccc(N2CCOCC2)c(Cl)c1
  IC50: 4.47 µM

## COc1ccc(NC(=O)c2sc(=O)n(Cc3ccc(F)c(Cl)c3)c2C)cc1OC
  IC50: 20.6 µM (inactive)

## Cc1ccc(S(=O)(=O)N(CC(=O)Nc2ccccc2C(=O)O)c2cccc(Cl)c2C)cc1
  IC50: 18.8 µM (inactive)
